Experimental data: patent US20210254101A1, “METHODS FOR TREATING SPINAL CORD INJURY” (THE CHILDREN'S MEDICAL CENTER CORPORATION, priority 2018, published 2021)

System: mice with staggered lesions
Assay: Basso Mouse Scale (BMS) open field locomotion after staggered T7/T10 lateral hemisections
Type: in vivo
Experimental: A staggered lesion paradigm was optimized in which two lateral hemisections were performed at the thoracic (T) 7 and T10 levels simultaneously (FIGS. 1A and 1B), similar to the model previously described (Courtine 2008; van den Brand, 2012). The T10 lesion is a lateral hemisection that ends at the spinal cord midline, while the T7 lesion, contralateral to the T10 lesion, extends slightly beyond the midline (FIG. 1A). With this double hemisection procedure, all descending axons passing T10 are severed, leaving only those crossing the midline between T7 and T10 intact (FIG. 1C). Indeed, by immunohistochemistry with anti-5-HT antibodies, which label serotonergic axons, descending serotonergic axons could be detected in the spinal cord segments between the lesions, but not in the lumbar spinal cord (FIG. 1C). Thus, a relay zone remains between and around the lesions (T7 and T10) where descending axons terminate, and where some propriospinal neurons maintain their connections with lumbar spinal neurons (see herein below).
This double hemisection SCI model was used to seek small molecule compounds that could reactivate the spared, but dormant, spinal connections by monitoring hindlimb motor performance during over-ground locomotion. To this end, daily compound treatment was started 1 week after injury and then monitored the BMS scores approximately 24 hours after the previous day's compound treatment on a weekly basis (FIG. 1D). Behavioral outcomes observed at these time points likely reflect sustained effects of the treatment, which are more clinically relevant.
Surgical Procedures. The procedure of T7 and T10 double lateral hemisection was similar to that described elsewhere (Courtine et al., 2008; van den Brand et al., 2012). Briefly, a midline incision was made over the thoracic vertebrae, followed by a T7-10 laminectomy. For the T7 right side over-hemisection, a scalpel and micro-scissors were carefully used to interrupt the bilateral dorsal column at T7, and ensured no sparing of ventral pathways on the contralateral side (FIG. 1A). For the T10 left hemisection, a scalpel and micro-scissors were carefully used to interrupt only the left side of the spinal cord until the midline. The muscle layers were then sutured, and the skin was secured with wound clips. All animals received post hoc histological analysis, and those with spared 5HT axons at the lumbar spinal cord (L2-5) were excluded for behavioral analysis (FIG. 7).
Behavioral Experiments. Motor function was evaluated with a locomotor open field rating scale on the Basso Mouse Scale (BMS). For transient pharmacological treatments, ten to fifteen minutes (van den Brand et al., 2012) prior to behavioral tests (grounding walking, all of which were performed individually), mice received systematic administration (i.p.) of the neural modulators listed above. It is important to note that with a single intraperitoneal injection, plasma CNO levels peak at 15 min and become very low by 2 h after injection (Guettier et al., 2009). For chronic pharmacological treatments, 24 hours prior to behavioral tests, mice received systematic administration of the compounds listed above. All behavioral tests were completed within 1-3 hours. For detailed hindlimb kinematic analysis, mice from different groups were placed in the MotoRater (TSE Systems, (Zorner et al., 2010)), and all kinematic analysis was performed based on data collected by the MotoRater.

O=C1N=C(N2CCCCN2)S/C1=C\c1ccc(F)cc1OC(=O)N1CCCC1 [CLP290, [5-Fluoro-2-[(Z)-(2-hexahydropyridazin-1-yl-4-oxo-thiazol-5-ylidene)methyl]phenyl] pyrrolidine-1-carboxylate]
mice that recovered consistent hindpaw plantar placement and weight-bearing stepping (9 weeks post staggered injury, FIG. 1F): 80%
additional functional recovery (BMS) from accompanying CLP290 treatment (Vgat-Cre mice with AAV-FLEX-KCC2, CLP290 versus vehicle, FIG. 10E): did not significantly enhance functional recovery at most time points
time BMS scores remained significantly higher than controls after stopping treatment (after withdrawal following 10-week treatment, FIG. 1G): 1-2 weeks
stepping ability / functional recovery (BMS), chronic compound treatment (daily i.p. treatment from 1 week after injury, BMS about 24 h after previous dose, FIG. 1E, 7A): induced sustained functional recovery
time at which functional recovery (BMS) first appeared (daily i.p. treatment started 1 week after injury, BMS about 24 h after previous dose, FIG. 1E): 4-5 weeks
time from which functional recovery (BMS) became significant (weeks after treatment, daily i.p. treatment, BMS about 24 h after previous dose, FIG. 1E): 7 weeks
